Values quoted from earlier work in patent US20050245613A1, “Use of gaba-b receptor positive modulators in gastro-intestinal disorders” (priority 2002, published 2005).

What was measured:
GERD patients [1] = test system: GERD patients
GERD patients [2] = conditions: long-term recording of esophageal pH
[3] = test system: vagal afferent and efferent fibers

In the case of `NCC(CC(=O)O)c1ccc(Cl)cc1` (stereo not drawn) [Baclofen], the “frequency of TLESR” value (dogs) is listed as “reduces the frequency of TLESR”, the “frequency of TLESR” value (GERD patients [1]) is listed as “reduces the frequency of TLESR” and the esophageal acid exposure (GERD patients [2]) is listed as “significant reduction in esophageal acid exposure”. For the same molecule, the “sensitivity of vagal afferent and efferent fibers” value [3] was “reduce the sensitivity of vagal afferent and efferent fibers”, the “frequency of TLESR” value (healthy subjects) was “reduces the frequency of TLESR” and the “frequency of TLESR” value (ferrets) was “reduces the frequency of TLESR”.
